Results as given in ChEMBL document CHEMBL1201862, “PubChem BioAssay data set” (2004).
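Cultured in 96-well plates, cells were exposed to test compound for 48 hours across five concentrations. Abbreviation: GI50, concentration required for 50% inhibition of growth.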 Active and inactive are the calls of the source. No stated cut-off is given here; in the data, active = GI50 up to about 1.1 µM and inactive = higher.

Key:
Assay in all cases: NCI-60 cell line screen, 48 h
786-0 = test system: 786-0
A498 = test system: A498
CAKI-1 = test system: CAKI-1
HL-60 = test system: HL-60
HOP-62 = test system: HOP-62
K562 = test system: K562
Malme-3M = test system: Malme-3M
NCI-H23 = test system: NCI-H23
NCI-H460 = test system: NCI-H460
OVCAR-5 = test system: OVCAR-5
OVCAR-8 = test system: OVCAR-8
RPMI-8226 = test system: RPMI-8226
RXF 393 = test system: RXF 393
SF-268 = test system: SF-268
SF-539 = test system: SF-539
SK-MEL-5 = test system: SK-MEL-5
UO-31 = test system: UO-31
XF498 = test system: XF498
DU-145 = test system: DU-145
MDA-MB-231 = test system: MDA-MB-231

| SMILES | GI50 (786-0) | GI50 (A498) | GI50 (CAKI-1) | GI50 (HL-60) | GI50 (HOP-62) | GI50 (K562) | GI50 (Malme-3M) | GI50 (NCI-H23) | GI50 (NCI-H460) | GI50 (OVCAR-5) | GI50 (OVCAR-8) | GI50 (RPMI-8226) | GI50 (RXF 393) | GI50 (SF-268) | GI50 (SF-539) | GI50 (SK-MEL-5) | GI50 (UO-31) | GI50 (XF498) | GI50 (DU-145) | GI50 (MDA-MB-231) |
| --- | --- | --- | --- | --- | --- | --- | --- | --- | --- | --- | --- | --- | --- | --- | --- | --- | --- | --- | --- | --- |
| O=C1NC(=O)C2C(=O)NC(=O)C1C2c1c(Cl)cccc1Cl (configuration not stated) | > 61.8 µM (inactive) | > 100 µM (inactive) | > 100 µM (inactive) | > 44.4 µM (inactive) | > 100 µM (inactive) | > 49.4 µM (inactive) | > 100 µM (inactive) | > 100 µM (inactive) | > 42.2 µM (inactive) | > 100 µM (inactive) | > 66.2 µM (inactive) | > 46.6 µM (inactive) | > 43.1 µM (inactive) | > 51.1 µM (inactive) | > 88.3 µM (inactive) | > 100 µM (inactive) | > 100 µM (inactive) | > 100 µM (inactive) |  |  |
| CCC(=O)C(C)C1=Nc2nnc(CCCCCCCc3nnc4n3C(=O)C(C(C)C(=O)CC)=N4)n2C1=O (configuration not stated) | > 100 µM (inactive) | > 100 µM (inactive) | > 100 µM (inactive) | > 100 µM (inactive) | > 100 µM (inactive) | > 100 µM (inactive) | > 100 µM (inactive) | > 100 µM (inactive) | > 100 µM (inactive) | > 100 µM (inactive) | > 100 µM (inactive) | > 100 µM (inactive) | > 100 µM (inactive) | > 100 µM (inactive) | > 100 µM (inactive) | > 100 µM (inactive) | > 100 µM (inactive) | > 100 µM (inactive) |  |  |
| CC1(C)CC(c2c[nH]c3ccccc23)=CC2=Nc3ccccc3C21O (configuration not stated) | 43.7 µM (inactive) | > 100 µM (inactive) | 48.8 µM (inactive) | > 100 µM (inactive) | > 100 µM (inactive) | 91.6 µM (inactive) | > 100 µM (inactive) | 34 µM (inactive) | > 100 µM (inactive) | > 100 µM (inactive) | 27 µM (inactive) | > 100 µM (inactive) | 37.8 µM (inactive) | > 100 µM (inactive) | 93.1 µM (inactive) | 36.4 µM (inactive) | > 100 µM (inactive) | 29.2 µM (inactive) |  |  |
| Cc1c(C(=O)C/C(=N/NC(=O)c2ccccc2O)C(=O)Nc2ccccc2C(C)C)[n+]([O-])c2ccccc2[n+]1[O-] | 49.7 µM (inactive) | > 100 µM (inactive) | 30.8 µM (inactive) | 3.01 µM (inactive) | > 100 µM (inactive) | 33.7 µM (inactive) | 48.6 µM (inactive) | 19.4 µM (inactive) | 31.2 µM (inactive) | > 100 µM (inactive) | 29.6 µM (inactive) |  | 75.3 µM (inactive) | 33.9 µM (inactive) | 40.6 µM (inactive) | 43 µM (inactive) |  | > 100 µM (inactive) |  |  |
| CCCCCCCCCCC(=O)CCCCCCC(=O)O | 18.8 µM (inactive) | 20.1 µM (inactive) | 30.5 µM (inactive) | 4.23 µM (inactive) | 25.4 µM (inactive) | 7.33 µM (inactive) | 20.8 µM (inactive) | 30.1 µM (inactive) | 16.5 µM (inactive) | 16.3 µM (inactive) | 17.8 µM (inactive) | 13.4 µM (inactive) | 36.3 µM (inactive) | 50.5 µM (inactive) | 18.1 µM (inactive) | 15.5 µM (inactive) | 23.7 µM (inactive) | 24.3 µM (inactive) |  |  |
| C[C@H](NS(=O)(=O)c1ccc(NC(=O)c2ccccc2)cc1)C(=O)O | > 100 µM (inactive) | > 100 µM (inactive) | > 100 µM (inactive) | > 100 µM (inactive) |  | > 100 µM (inactive) | > 100 µM (inactive) | > 100 µM (inactive) | > 100 µM (inactive) | > 100 µM (inactive) | > 100 µM (inactive) | > 100 µM (inactive) | > 100 µM (inactive) | > 100 µM (inactive) | > 100 µM (inactive) | > 100 µM (inactive) | > 100 µM (inactive) | > 100 µM (inactive) |  |  |
| CN(C)CC1CCCC/C1=N\OC(=O)c1ccccc1 (configuration not stated) | > 100 µM (inactive) | > 100 µM (inactive) | > 100 µM (inactive) | > 100 µM (inactive) | > 100 µM (inactive) | > 100 µM (inactive) | > 100 µM (inactive) | > 100 µM (inactive) | > 100 µM (inactive) | > 100 µM (inactive) | > 100 µM (inactive) | > 100 µM (inactive) | > 100 µM (inactive) | > 100 µM (inactive) | > 100 µM (inactive) | > 100 µM (inactive) | > 100 µM (inactive) | > 100 µM (inactive) |  |  |
| N#Cc1ccc(Oc2cccc(Oc3ccccc3)c2)cc1C#N | > 10 µM (inactive) | 41.5 µM (inactive) | > 10 µM (inactive) | 31.9 µM (inactive) | > 10 µM (inactive) | 41.4 µM (inactive) | > 10 µM (inactive) | 44.8 µM (inactive) | 74.5 µM (inactive) | > 10 µM (inactive) | > 10 µM (inactive) | > 10 µM (inactive) | 64 µM (inactive) | 48.2 µM (inactive) | 99.5 µM (inactive) | 36.7 µM (inactive) | 14.9 µM (inactive) | > 10 µM (inactive) |  |  |
| O=C1C(CN2CCCCC2)CCCC1CN1CCCCC1 (configuration not stated) | 8.26 µM (inactive) |  |  |  |  |  | 8.07 µM (inactive) | 22.9 µM (inactive) |  | > 55.6 µM (inactive) | 18.5 µM (inactive) | 2.24 µM (inactive) | 16.3 µM (inactive) |  | 30.2 µM (inactive) | 32.1 µM (inactive) | > 56.2 µM (inactive) | 21.2 µM (inactive) | 17.8 µM (inactive) | 18.5 µM (inactive) |
| COc1cc2cc3c4cc(OC)c(OC)cc4cc[n+]3c(C)c2cc1OC.O=C([O-])CS(=O)(=O)O | 88.3 µM (inactive) | 22.3 µM (inactive) | > 100 µM (inactive) | 24.2 µM (inactive) | 42.8 µM (inactive) | 61.1 µM (inactive) | > 100 µM (inactive) | 7.87 µM (inactive) | > 100 µM (inactive) | > 100 µM (inactive) | 24.3 µM (inactive) | 68.4 µM (inactive) | > 100 µM (inactive) | 0.811 µM (active) | 42.7 µM (inactive) | 80 µM (inactive) | > 100 µM (inactive) | 36.4 µM (inactive) | 28.4 µM (inactive) | 70.5 µM (inactive) |
| c1ccc2c(CNCCCCCCCCCCCCNCc3cccc4ccccc34)cccc2c1 | 1.81 µM (inactive) | 6.08 µM (inactive) | 1.92 µM (inactive) | 1.47 µM (inactive) | 2.14 µM (inactive) | 0.467 µM (active) | 2.21 µM (inactive) | 1.51 µM (inactive) | 1.53 µM (inactive) | 1.54 µM (inactive) | 1.63 µM (inactive) | 1.04 µM (active) | 1.36 µM (inactive) | 2.22 µM (inactive) | 1.58 µM (inactive) | 1.83 µM (inactive) | 1.64 µM (inactive) | 1.69 µM (inactive) |  |  |
